ChEMBL document CHEMBL1201862, “PubChem BioAssay data set” (2004)
Active and inactive are the calls of the source.

Key:
[1] = biological target: T1, Ubiquitin-conjugating enzyme E2 N (Homo sapiens, UniProt P61088); type: functional;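 note: Dose-response confirmation in a TR-FRET assay detecting UBC13-driven polyubiquitin chain formation, inhibition measured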
T1 sequence (P61088 whole entry): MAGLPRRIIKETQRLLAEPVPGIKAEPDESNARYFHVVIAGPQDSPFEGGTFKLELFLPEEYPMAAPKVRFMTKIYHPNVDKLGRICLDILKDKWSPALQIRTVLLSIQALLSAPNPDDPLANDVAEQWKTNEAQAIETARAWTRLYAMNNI

[2] = Luminescence Cell-Based Dose Confirmation HTS to Identify Activators of 5'UTR Stem-Loop Driven Alpha-Synuclein mRNA Translation in H4 Neuroglioblastoma Cells. [Related pubchem assays: 1829 (Project Summary), 1814 (Primary HTS)]; type: functional
[3] = Luminescence Cell-Based Dose Response HTS to Identify Activators of Luciferase Translation or Activity in H4 […] Cells. [Related pubchem assays: 1829 (Project Summary), 1814 (Primary HTS)]; type: functional
H4 = assay: Luminescence Cell-Based Dose Response HTS to Identify Activators of 5'UTR Stem-Loop Driven Prion Protein mRNA Translation in H4 Neuroglioblastoma Cells. [Related pubchem assays: 1829 (Project Summary), 1814 (Primary HTS)]; type: functional; settings: Homo sapiens
[4] = test system: Streptococcus sp. 'group A'; assay: growth inhibition of control SK(-) GAS strain, dose response, counter-screen for streptokinase expression inhibitor project, luminescence, kanamycin, BacTiterGlo, confirmation (AID 1900); type: functional, organism-based
Streptokinase A = biological target: T2, Streptokinase A (Streptococcus pyogenes serotype M1, UniProt P10520); assay: S. pyogenes streptokinase expression inhibitors, potency, dose response, plasminogen activation absorbance, OD405 (AID 1914); type: functional, Streptococcus pyogenes M1 GAS;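 note: secreted streptokinase activity via plasminogen activation per viability signal from cell pellet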
T2 sequence (P10520 whole entry): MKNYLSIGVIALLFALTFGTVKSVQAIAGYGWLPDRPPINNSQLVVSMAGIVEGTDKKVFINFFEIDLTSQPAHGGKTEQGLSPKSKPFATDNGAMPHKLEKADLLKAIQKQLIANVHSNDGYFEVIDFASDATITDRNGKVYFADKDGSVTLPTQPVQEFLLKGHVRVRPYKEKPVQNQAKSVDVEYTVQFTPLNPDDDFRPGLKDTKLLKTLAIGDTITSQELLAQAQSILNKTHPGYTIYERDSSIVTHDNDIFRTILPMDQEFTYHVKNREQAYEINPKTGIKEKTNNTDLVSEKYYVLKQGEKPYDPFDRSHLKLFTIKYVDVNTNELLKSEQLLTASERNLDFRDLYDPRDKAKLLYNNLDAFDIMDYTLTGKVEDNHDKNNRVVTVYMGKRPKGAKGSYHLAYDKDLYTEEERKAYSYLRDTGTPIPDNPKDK

Streptococcus = assay: Group A Streptococcus viability loss, dose response, counter-screen for streptokinase expression inhibitor project, luminescence, BacTiterGlo (AID 1915); type: functional, organism-based;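 note: potency for reduction of bacterial viability or growth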
[5] = HEp-2 cell cytotoxicity, dose response, cytotoxicity control for RSV inhibitor project, HTS (AID 2410); type: functional; settings: human respiratory syncytial virus
[6] = biological target: T3, Rac GTPase-activating protein 1 (Homo sapiens, UniProt Q9H0H5); assay: MgcRacGAP GTPase-activating activity inhibitors, confirmation, biochemical, ADP Hunter fluorescence, primary and confirmatory (AID 624330); type: functional
T3 sequence (Q9H0H5 whole entry): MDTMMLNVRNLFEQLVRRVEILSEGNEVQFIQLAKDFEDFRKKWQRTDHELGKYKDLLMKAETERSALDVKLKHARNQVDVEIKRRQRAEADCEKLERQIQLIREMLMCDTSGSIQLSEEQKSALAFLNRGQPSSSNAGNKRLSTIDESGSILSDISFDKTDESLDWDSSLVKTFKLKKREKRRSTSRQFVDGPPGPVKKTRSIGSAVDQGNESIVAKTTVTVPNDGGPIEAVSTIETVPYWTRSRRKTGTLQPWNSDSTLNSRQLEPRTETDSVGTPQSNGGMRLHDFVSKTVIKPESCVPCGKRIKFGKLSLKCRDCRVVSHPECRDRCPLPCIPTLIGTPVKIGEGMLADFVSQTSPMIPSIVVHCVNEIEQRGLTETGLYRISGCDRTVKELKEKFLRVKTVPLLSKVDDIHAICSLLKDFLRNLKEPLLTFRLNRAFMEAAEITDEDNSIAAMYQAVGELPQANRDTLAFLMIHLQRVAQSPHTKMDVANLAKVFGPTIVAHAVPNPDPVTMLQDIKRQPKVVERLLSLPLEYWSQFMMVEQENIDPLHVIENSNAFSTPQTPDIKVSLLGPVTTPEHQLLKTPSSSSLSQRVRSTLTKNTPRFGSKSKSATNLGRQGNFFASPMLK

H9c2 = assay: cells; type: functional, cell-based; settings: Rattus norvegicus, H9c2, Myocardium
Cytochrome P450 3A4 = Cytochrome P450 3A4 (Homo sapiens, UniProt P08684);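 note: CYP3A4 tested as one member of a cytochrome P450 panel screen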
Chain of Cytochrome P450 3A4 (P08684 whole entry): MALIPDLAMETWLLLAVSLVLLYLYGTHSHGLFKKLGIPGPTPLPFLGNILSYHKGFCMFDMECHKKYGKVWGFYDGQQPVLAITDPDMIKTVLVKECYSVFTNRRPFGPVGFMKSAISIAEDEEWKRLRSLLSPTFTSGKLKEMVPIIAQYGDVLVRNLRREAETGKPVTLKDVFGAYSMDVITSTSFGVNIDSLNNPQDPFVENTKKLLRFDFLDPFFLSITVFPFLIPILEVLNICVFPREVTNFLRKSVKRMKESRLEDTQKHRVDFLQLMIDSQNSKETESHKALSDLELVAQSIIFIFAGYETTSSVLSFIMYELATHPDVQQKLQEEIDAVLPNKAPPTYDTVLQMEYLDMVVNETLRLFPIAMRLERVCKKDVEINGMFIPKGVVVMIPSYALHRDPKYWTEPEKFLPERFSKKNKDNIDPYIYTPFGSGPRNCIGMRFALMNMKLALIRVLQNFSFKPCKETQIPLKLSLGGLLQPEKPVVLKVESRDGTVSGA

[7] = Luminescence Cell-Based Dose Retest to Confirm Inhibitors of Cancer Stem Cells. [Related pubchem assays (depositor defined):AID2717, AID2721]; type: functional; settings: Homo sapiens
[8] = biological target: T4, Corticotropin-releasing factor receptor 2/Corticotropin-releasing factor-binding protein (Homo sapiens, UniProt P24387+Q13324); assay: activators of CRF receptor 2 with binding protein – uHTS hits, confirmation (AID 602473); type: functional; settings: read-out: EC50_Mean
T4 sequence (Q13324 whole entry): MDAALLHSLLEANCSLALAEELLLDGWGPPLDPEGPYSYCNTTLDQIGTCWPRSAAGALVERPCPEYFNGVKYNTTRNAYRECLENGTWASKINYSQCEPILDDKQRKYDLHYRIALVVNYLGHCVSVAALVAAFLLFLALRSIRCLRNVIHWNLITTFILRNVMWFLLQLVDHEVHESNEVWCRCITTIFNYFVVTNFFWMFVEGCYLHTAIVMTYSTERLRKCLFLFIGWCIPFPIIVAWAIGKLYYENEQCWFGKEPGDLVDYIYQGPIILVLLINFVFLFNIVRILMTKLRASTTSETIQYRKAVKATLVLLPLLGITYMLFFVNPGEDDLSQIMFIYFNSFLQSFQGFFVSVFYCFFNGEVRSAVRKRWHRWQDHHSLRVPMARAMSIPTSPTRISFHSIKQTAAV
T4 sequence (P24387 whole entry): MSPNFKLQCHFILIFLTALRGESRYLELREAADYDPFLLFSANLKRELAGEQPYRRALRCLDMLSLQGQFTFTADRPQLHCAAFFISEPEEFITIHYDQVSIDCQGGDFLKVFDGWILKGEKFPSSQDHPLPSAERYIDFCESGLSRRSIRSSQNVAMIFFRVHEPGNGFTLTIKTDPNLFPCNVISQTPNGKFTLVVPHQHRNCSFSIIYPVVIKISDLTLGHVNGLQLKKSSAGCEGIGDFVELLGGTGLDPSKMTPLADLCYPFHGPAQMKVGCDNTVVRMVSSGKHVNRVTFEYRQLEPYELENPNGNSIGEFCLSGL

[9] = NIH-3T3 fibroblast cytotoxicity, dose response, cytotoxicity control, cell-based, fluorescence, Alamar Blue, secondary assay (AID 2327); type: functional;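 note: NIH-3T3 mouse fibroblasts cultured with fluconazole at 8 µg/mL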
[10] = C. albicans growth with fluconazole, confirmation, fluorescence, retest (AID 2467); type: functional, cell-based
[11] = growth suppression of beta-catenin-knockout colon cells, dose response, cell-based, HCT116, human colon tumor (AID 1045); type: functional;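 note: HCT116 colon tumor cells with beta catenin knocked out; cells exposed to compound for 60 hours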
[12] = growth suppression of PTEN-null colon cells, dose response, cell-based, HCT116 PTEN knockout (AID 1047); type: functional;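 note: HCT116 colon tumor cells with PTEN knocked out; cells exposed to compound for 60 hours before readout; potency for loss of cell viability measured by luminescence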
Cytochrome P450 2C19 = Cytochrome P450 2C19 (Homo sapiens, UniProt P33261); assay: Cytochrome panel assay with activity outcomes. Panel member name: p450-cyp2c19 Compounds with AC50 equal or less than 10 uM are considered active; type: functional; settings: read-out: AC50
Chain of Cytochrome P450 2C19 (P33261 whole entry): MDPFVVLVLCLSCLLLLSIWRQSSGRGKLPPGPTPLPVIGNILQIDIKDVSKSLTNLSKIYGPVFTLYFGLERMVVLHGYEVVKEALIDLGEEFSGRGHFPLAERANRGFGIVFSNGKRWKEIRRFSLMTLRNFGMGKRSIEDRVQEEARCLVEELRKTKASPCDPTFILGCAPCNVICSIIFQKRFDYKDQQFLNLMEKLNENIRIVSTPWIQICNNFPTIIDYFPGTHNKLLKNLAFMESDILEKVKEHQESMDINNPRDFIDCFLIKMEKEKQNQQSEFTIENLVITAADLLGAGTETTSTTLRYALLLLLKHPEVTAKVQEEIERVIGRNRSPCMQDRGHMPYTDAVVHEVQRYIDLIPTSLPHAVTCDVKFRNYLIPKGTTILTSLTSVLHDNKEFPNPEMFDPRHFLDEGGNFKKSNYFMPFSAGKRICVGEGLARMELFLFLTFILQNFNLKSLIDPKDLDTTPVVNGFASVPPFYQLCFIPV

## N#Cc1nc(-c2cccc3ccccc23)oc1NCCN1CCCCC1
[1]
  IC50: > 20 µM (inactive)
[2]
  EC50: 12.4 µM (active)
[3]
  EC50: 12 µM (active)
H4
  EC50: > 120 µM (not active)

## CCOC(=O)c1c(NC(=O)CCS(=O)(=O)c2ccccc2)sc2c1CCN(C)C2
[4]
  EC50: > 150 µM (not active)
Streptokinase A
  EC50: > 150 µM (not active)
Streptococcus
  EC50: > 150 µM (not active)

## CC(C)c1ccc(NC(=O)/C(C#N)=C/c2ccncc2)cc1
[5]
  CC50: 14.5 µM (active)

## CCOc1ccccc1NC(=O)C(NCCN(C)C)c1ccccc1 (configuration not stated)
[6]
  IC50: 91.1 µM (active)

## CC1Nc2ncnc(N3CCN(c4ccccc4)CC3)c2N(Cc2ccc(Cl)cc2)C1=O (configuration not stated)
H9c2
  IC50: > 79 µM (inactive)
[5]
  CC50: 26.4 µM (active)

## COc1cc(NC(=O)c2cc3nc(-c4ccccc4)cc(-c4ccccc4)n3n2)cc(OC)c1OC
[4]
  EC50: 11.7 µM (active)
Streptokinase A
  EC50: > 150 µM (not active)
Cytochrome P450 3A4
  AC50: 10 µM (inconclusive)
H9c2
  IC50: 8.62 µM (active)
Streptococcus
  EC50: > 150 µM (not active)

## C[C@]12CCC(O)CC1CCC1C2CC[C@]2(C)C(c3cc(C(F)(F)F)[nH]n3)CCC12 (some centres not stated)
[4]
  EC50: 1.17 µM (active)
Streptococcus
  EC50: 3.87 µM (active)
[7]
  AC50: 1.67 µM (active)
[5]
  CC50: 8.08 µM (active)

## C[C@]12CCC(O)CC1CCC1C2CC[C@]2(C)C(c3cc(C(F)(F)F)n[nH]3)CCC12 (some centres not stated)
Streptokinase A
  EC50: 4.19 µM (active)
[8]
  EC50: 11.1 µM (active)

## CCOC(=O)c1cnc(-n2cc(C)cn2)nc1Nc1ccccc1OCC
[4]
  EC50: 4.47 µM (active)
[9]
  EC50: 44.2 µM (active)
Streptokinase A
  EC50: > 150 µM (not active)
Streptococcus
  EC50: 6.46 µM (active)
[10]
  EC50: > 38 µM (not active)

## Cc1ccc(C)c(C(=O)COc2ccccc2[N+](=O)[O-])c1
[11]
  EC50: 9.49 µM (active)
[12]
  EC50: 10.2 µM (active)

## CC(=O)/C=C/c1ccc2ccccc2n1
[11]
  EC50: 2.42 µM (active)
Cytochrome P450 2C19
  AC50: 39.8 µM (inconclusive)
[12]
  EC50: 2.58 µM (active)

## COc1cc(C(=O)N/N=C/c2ccc(OC(=O)c3ccccc3Cl)c(OC)c2)ccc1O
[4]
  EC50: 6.17 µM (active)
Streptokinase A
  EC50: > 150 µM (not active)
Streptococcus
  EC50: 8.59 µM (active)

## C=CCc1cccc(/C=N/c2cc(Br)ccc2O)c1O
[6]
  IC50: 14.7 µM (active)

## CCCCCCC(C)(C)c1ccc([C@@H]2C[C@H](O)CC[C@H]2CCCO)c(O)c1 [CP-55940]
[7]
  AC50: 3.58 µM (active)
